Experimental data from publication PMC5472792, “Bub1 positions Mad1 close to KNL1 MELT repeats to promote checkpoint signalling” (Nature Communications, 2017).
Square brackets hold non-standard residues; d marks the D form. Peptide text beside a SMILES is read from it. * marks the point of attachment. Biotin = O=C1N[C@H]2[C@H](CS[C@H]2CCCCC(=O)*)N1; pT = C[C@@H](OP(=O)(O)O)[C@H](N)C(=O)O; Nle = CCCC[C@H](N)C(=O)O

Target: T1, Mad1 597–718 Glu710Ala/Phe712Ala (Homo sapiens, UniProt Q9Y6D9, E710A/F712A)
T1 construct: His; Strep; made in house; host or cells: E. coli BL21(DE3) (stated for the wild-type construct)
T1 sequence (Q9Y6D9 597-718 E710A/F712A): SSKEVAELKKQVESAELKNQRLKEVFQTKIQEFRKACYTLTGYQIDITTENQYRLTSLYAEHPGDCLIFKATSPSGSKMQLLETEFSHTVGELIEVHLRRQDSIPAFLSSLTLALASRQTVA
Assay: SPR, binding of CD1 peptide to Mad1 597–718 Glu710Ala/Phe712Ala
Settings: steady state, similar to Fig. 4
Description: To investigate this, we first tested the role of these Mad1 residues in binding Bub1. We measured the ability of recombinant Mad1 (597–718) Glu710Ala/Phe712Ala to bind the CD1 peptide phosphorylated on Thr461. […] This argues that Mad1 has an important function in the checkpoint in addition to interacting with Mad2 and Bub1.
Figure 6 Residues in Mad1 are important for SAC function but not Bub1 binding. (a) SPR steady-state responses for pT461 Bub1 CD1 peptides to purified Mad1 597–718 Glu710Ala/Phe712Ala protein similar to Fig. 4. (b) Nocodazole arrested stable HeLa cell lines expressing Mad1-BirA or mutants were treated with biotin as indicated and biotinylated proteins were isolated. The samples were analysed for the presence of KNL1, Bub1 and BubR1 by western blot. Mad1-BirA (WT), Mad1(EFR/AAA)-BirA and Mad1 (RLK/AAA)-BirA. Representative of two independent experiments. […] Live cell imaging and quantification were performed as in Fig. 5a. […] The number of cells analysed per condition is indicated above. […]
Bub1 peptides were purchased from Biosyntan Gmbh (Germany). The purity obtained in the synthesis was 95–98% as determined by high-performance liquid chromatography (HPLC) and the identity of the peptides was confirmed by mass spectrometry. […] Sensorgrams were analysed after double referencing. […]

## CCCC[C@H](NC(=O)[C@H](CC(N)=O)NC(=O)[C@H](CCCC)NC(=O)[C@@H](NC(=O)[C@H](Cc1ccccc1)NC(=O)CNC(=O)[C@H](CC(C)C)NC(=O)[C@H](C)NC(=O)[C@H](CCC(=O)O)NC(=O)[C@H](CCCCN)NC(=O)[C@@H](NC(=O)[C@H](Cc1c[nH]cn1)NC(=O)[C@@H](NC(=O)[C@@H](NC(=O)[C@@H]1CCCN1C(=O)[C@H](CO)NC(=O)[C@@H]1CCCN1C(=O)[C@H](CCC(N)=O)NC(=O)[C@@H](NC(=O)[C@H](CCCCN)NC(=O)[C@H](CO)NC(=O)[C@@H]1CCCN1C(=O)[C@@H](NC(=O)[C@H](C)NC(=O)[C@H](CCC(N)=O)NC(=O)[C@@H](NC(=O)CCCC[C@@H]1SC[C@@H]2NC(=O)N[C@@H]21)C(C)C)[C@@H](C)O)C(C)C)[C@@H](C)OP(=O)(O)O)C(C)C)[C@@H](C)O)[C@@H](C)CC)C(=O)N[C@@H](Cc1ccccc1)C(=O)N[C@@H](CCC(N)=O)C(=O)N[C@@H](C)C(=O)N1CCC[C@H]1C(=O)N[C@H](C(=O)N[C@@H](CC(C)C)C(=O)N[C@@H](Cc1c[nH]c2ccccc12)C(=O)O)[C@@H](C)O [CD1 pT461] (Biotin-VQATPSKVQPSP[pT]VHTKEALGFI[Nle]N[Nle]FQAPTLW-OH; C-terminus assumed)
  KD: the same affinity towards phosphorylated CD1 as wild type Mad1
